Data: paper PMC11597774, “Investigation of Antimicrobial and Anti-Inflammatory Efficacy of Newly Synthesized Pyrogallol-Coumarin Hybrids: In Vitro and In Silico Studies” (Pharmaceutics, 2024)
In brackets after ≈: the same amount, converted by molar mass. Blank lines part the entries; values can stand above or below the compound they belong to.

Columns and labels:
[1] = molecular target: T1, Soybean lipoxygenase (Type I-B) (Glycine max, UniProt P08170); assay: In vitro LOX inhibition assay; format: biochemical; settings: for inhibition at 25 µM / inhibition at 50 µM / inhibition at 100 µM: read-out: Anti-LOX Activity (%); for IC50: sodium linoleate substrate, tris buffer pH 9, read-out: IC50 (µM), in vitro lipoxygenase inhibitory activity
T1 construct: purchased Merck (KGaA, Darmstadt, Germany)
T1 sequence (P08170 1-839): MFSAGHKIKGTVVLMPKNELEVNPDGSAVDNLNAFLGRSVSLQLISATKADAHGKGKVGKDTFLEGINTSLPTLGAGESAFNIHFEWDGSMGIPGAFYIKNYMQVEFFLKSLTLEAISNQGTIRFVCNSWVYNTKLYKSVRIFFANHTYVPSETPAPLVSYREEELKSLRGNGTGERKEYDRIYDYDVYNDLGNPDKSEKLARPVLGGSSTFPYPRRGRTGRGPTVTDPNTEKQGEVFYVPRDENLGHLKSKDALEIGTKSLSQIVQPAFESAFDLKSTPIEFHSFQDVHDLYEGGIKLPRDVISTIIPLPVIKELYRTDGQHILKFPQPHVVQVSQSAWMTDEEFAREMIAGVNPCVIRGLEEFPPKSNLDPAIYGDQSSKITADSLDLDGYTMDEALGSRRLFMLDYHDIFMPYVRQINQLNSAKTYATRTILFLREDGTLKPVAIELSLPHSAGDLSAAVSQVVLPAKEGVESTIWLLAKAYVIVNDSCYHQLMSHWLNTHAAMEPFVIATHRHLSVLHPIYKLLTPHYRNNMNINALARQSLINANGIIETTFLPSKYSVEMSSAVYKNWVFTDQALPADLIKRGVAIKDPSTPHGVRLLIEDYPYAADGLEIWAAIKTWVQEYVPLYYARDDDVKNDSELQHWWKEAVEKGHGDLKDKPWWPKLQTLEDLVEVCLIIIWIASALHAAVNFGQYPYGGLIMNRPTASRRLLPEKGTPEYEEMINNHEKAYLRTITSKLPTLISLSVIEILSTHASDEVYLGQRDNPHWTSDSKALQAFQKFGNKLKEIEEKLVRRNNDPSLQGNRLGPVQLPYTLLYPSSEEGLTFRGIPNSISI
From the text: Soybean lipoxygenase (Type I-B) is a very often used enzyme for the investigation of anti-inflammatory properties of compounds [38]. The LOX inhibition assay measures the rate of oxidation of linoleic acid by lipoxygenase, which results in the formation of a colorless product that can be detected spectrophotometrically. This enzyme catalyzes the conversion of linoleic acid into hydroperoxy fatty acids and results in increased absorbance at 234 nm. The tested compounds dissolved in DMSO were incubated at room temperature with sodium linoleate (3 mM in tris buffer pH = 9) and enzyme solution (5 × 10^3 units/mL in saline). The activity for each tested compound was presented as IC50 value ± standard deviation (SD) of three independent measurements.

[2] = test system: P. mirabilis ATCC 12453; assay: Inhibition of biofilm formation (crystal violet); format: cell-based, Proteus mirabilis
Protocol: (§1) The ability of S. aureus ATCC 6538, P. mirabilis ATCC 12453, and P. aeruginosa ATCC 27853 to form biofilms was assayed as described by O’Toole et al. (2000), with some modifications. Briefly, tissue culture 96-well microtiter plates (Sarstedt, Germany) were prepared by dispensing 100 µL of nutrient broth (i.e., Mueller Hinton broth) into each well. Then, 10 µL of spore suspension (1.0 McFarland for Gram-positive bacteria and 0.5 McFarland for Gram-negative bacteria) was added to each row. To encourage biofilm formation, all plates were incubated at 37 °C for 48 h, after which the content of each well was emptied and washed twice with 200 µL of sterile 0.85% saline to remove non-adherent cells. The biofilms formed were fixed by adding 100 µL of methanol until it evaporated completely, then stained with 0.1% (w/v) crystal violet (Fluka AG, Buchs, Switzerland) and left at room temperature for 20 min. The excess stain was washed away with deionized water, followed by […] of 96% ethanol. The optical densities (ODs) of the stained biofilms were measured with an ELISA plate reader (RT-2100C, Rayto, Shenzhen, China) at 630 nm. Control wells containing only broth were included to verify sterility and prevent nonspecific media binding. To account for background absorbance, OD readings from sterile medium, fixative, and dye were averaged and subtracted from all test measurements. All tests were conducted in duplicate. The tissue culture 96-well microtiter plates (Sarstedt, Germany) were prepared by dispensing 100 µL of nutrient broth (i.e., Mueller Hinton broth) into each well. From the stock solutions of tested PCH-1 and PCH-2 (at a concentration of 5.4 µmol/L), 100 µL was added to the first row of the microtiter plate. Twofold serial dilutions were then performed, followed by the addition of 10 µL of bacterial suspension to each well. The turbidity of the bacterial suspension was 0.5 McFarland for Gram-negative bacteria and 1.0 McFarland for Gram-positive bacteria. The microtiter plates prepared in this way were incubated at 37 °C for 48 h. The remaining steps of the experiment were carried out as outlined below. […] Only broth or broth with tested PCH-1 and PCH-2 served as controls to check sterility and nonspecific binding of media. To compensate for background absorbance, OD readings from sterile medium, extracts, fixative, and dye were averaged and subtracted from all test values. All tests were performed in duplicate.

[3] = test system: S. enterica; assay: Microdilution MIC/MMC with resazurin; format: cell-based, Salmonella enterica; settings: S. enterica
Protocol: (§2) The antimicrobial activity of PCH-1 and PCH-2 was tested against 13 microorganisms. The experiment included four standard strains, Staphylococcus aureus ATCC 6538, Bacillus subtilis ATCC 6633, Proteus mirabilis ATCC 12453, and Pseudomonas aeruginosa ATCC 27853; five isolates, Staphylococcus aureus, Escherichia coli, Salmonella enterica, Klebsiella pneumoniae, and Bacillus subtilis; and one probiotic strain Lactobacillus plantarum 299V. Additionally, three fungal strains were tested, including one standard strain, Candida albicans ATCC 10231, and two isolates, Saccharomyces cerevisiae and probiotic strain Saccharomyces boulardii.
(§3) The bacterial suspensions were prepared using the direct colony method. The turbidity of the initial suspension was adjusted using a densitometer (DEN-1, BioSan, Latvia). When adjusted to the turbidity of the 0.5 McFarland standard, the bacterial suspension contains approximately 10^8 colony-forming units (CFU)/mL, and the yeast suspension contains approximately 10^6 CFU/mL. For the experiment, the initial suspension was further diluted at a 1:100 ratio in a sterile 0.85% saline solution.
(§4) The antimicrobial activity was assessed by determining the minimum inhibitory concentrations (MICs) and minimum microbicidal concentrations (MMCs) using the microdilution plate method with resazurin (Alfa Aesar GmbH & Co. (KG, Karlsruhe, Germany)). For this, 96-well plates were prepared by adding 100 μL of Mueller Hinton broth (Torlak, Belgrade, Serbia) for bacterial tests and Sabouraud broth (Torlak, Belgrade, Serbia) for yeast into each well. The tested PCH-1 and PCH-2 were dissolved in 10% dimethyl sulfoxide (DMSO) and then diluted into sterile distilled water. A 100 μL sample from the stock solution of the tested compound was then added to the first row of the plate, followed by twofold serial dilutions using a multichannel pipette. This produced a concentration range from 2.69 to 0.0025 µmol/L. The method is described in detail in the reported paper.
(§5) Each test setup included growth control and sterility control. […] Minimum microbicidal concentrations (MMCs) were determined as described in detail in the reported paper.

[4] = test system: B. subtilis (isolate); assay: Microdilution MIC/MMC with resazurin; format: cell-based, Bacillus subtilis
Protocol: as §2, §3, §4, §5

[5] = test system: B. subtilis ATCC 6633; assay: Microdilution MIC/MMC with resazurin; format: cell-based, Bacillus subtilis
Protocol: as §2, §3, §4, §5

[6] = test system: S. aureus ATCC 25923; assay: Microdilution MIC/MMC with resazurin; format: cell-based, Staphylococcus aureus
[7] = test system: P. aeruginosa ATCC 27853; assay: Microdilution MIC/MMC with resazurin; format: cell-based, Pseudomonas aeruginosa
Protocol: as §2, §3, §4, §5

[8] = test system: K. pneumoniae; assay: Microdilution MIC/MMC with resazurin; format: cell-based, Klebsiella pneumoniae
Protocol: as §2, §3, §4, §5

[9] = test system: S. aureus (isolate); assay: Microdilution MIC/MMC with resazurin; format: cell-based, Staphylococcus aureus
Protocol: as §2, §3, §4, §5

[10] = test system: E. coli; assay: Microdilution MIC/MMC with resazurin; format: cell-based, Escherichia coli
Protocol: as §2, §3, §4, §5

[11] = test system: P. mirabilis ATCC 12453; assay: Microdilution MIC/MMC with resazurin; format: cell-based, Proteus mirabilis
Protocol: as §2, §3, §4, §5

[12] = test system: P. aeruginosa ATCC 27853; assay: Inhibition of biofilm formation (crystal violet); format: cell-based, Pseudomonas aeruginosa
Protocol: as §1

[13] = test system: L. plantarum 299V; assay: Microdilution MIC/MMC with resazurin; format: cell-based, Lactobacillus plantarum
Protocol: as §2, §3, §4, §5

[14] = test system: S. aureus ATCC 25923; assay: Inhibition of biofilm formation (crystal violet); format: cell-based, Staphylococcus aureus
[15] = test system: S. boulardii; assay: Microdilution MIC/MMC with resazurin; format: cell-based, Saccharomyces boulardii
Protocol: as §2, §3, §4, §5

[16] = test system: S. cerevisiae; assay: Microdilution MIC/MMC with resazurin; format: cell-based, Saccharomyces cerevisiae
Protocol: as §2, §3, §4, §5

[17] = test system: C. albicans ATCC 10231; assay: Microdilution MIC/MMC with resazurin; format: cell-based, Candida albicans
Protocol: as §2, §3, §4, §5

inhibition at 25 µM [1]: 21.6 ± 1.4%
inhibition at 40 µM [1]: 33.9 ± 0.8%
inhibition at 50 µM [1]: 37.8 ± 1%
inhibition at 75 µM [1]: 57.5 ± 1.1%
inhibition at 100 µM [1]: 73.5 ± 0.6%
IC50 [1]: 65.4 ± 0.6 µM
SMILES: NNC(=O)c1ccc(O)c(O)c1O [H-1, 2,3,4-trihydroxybenzohydrazide]

inhibition at 25 µM [1]: 26.4 ± 1.3%
inhibition at 40 µM [1]: 35.8 ± 0.8%
inhibition at 50 µM [1]: 43.5 ± 3.1%
inhibition at 75 µM [1]: 63.4 ± 0.4%
inhibition at 100 µM [1]: 81.2 ± 0.2%
IC50 [1]: 57.9 ± 1.6 µM
SMILES: CC(=O)c1c(O)c2ccccc2oc1=O [3AcHyC, 3-acetyl-4-hydroxycoumarin]

inhibition at 25 µM [1]: 32 ± 0.1%
inhibition at 40 µM [1]: 44.4 ± 1.7%
inhibition at 50 µM [1]: 56 ± 1.1%
inhibition at 75 µM [1]: 73.4 ± 0.3%
inhibition at 100 µM [1]: 91.9 ± 0.2%
IC50 [1]: 46 ± 0.9 µM
SMILES: NNC(=O)c1cc(O)c(O)c(O)c1 [H-2, 3,4,5-trihydroxybenzohydrazide]

SMILES: CN(C)[C@@H]1C(O)=C(C(N)=O)C(=O)[C@@]2(O)C(O)=C3C(=O)c4c(O)cccc4[C@@](C)(O)[C@H]3C[C@@H]12 [Tetracycline, reference compound]
BIC90 ([2]; P. mirabilis ATCC 12453, 48 h): >2.25 mM
IC50 ([2]; Proteus mirabilis, ATCC12453, P. mirabilis ATCC 12453, 48 h, read-out: BIC50): 1310 µM
MMC [3]: 0.01 mM
MMC [4]: 0.005 mM
MIC ([4]; Bacillus subtilis): 2 µM (≈ 0.889 µg/mL)
MMC [5]: 0.035 mM
MIC ([5]; Bacillus subtilis, ATCC6633): 5 µM (≈ 2.22 µg/mL)
MMC [6]: 0.005 mM
MIC ([6]; Staphylococcus aureus, ATCC25923): < 1 µM
MMC [7]: 0.14 mM
MIC ([7]; Pseudomonas aeruginosa, ATCC27853): 20 µM (≈ 8.89 µg/mL)
MMC [8]: 0.07 mM
MIC ([8]; Klebsiella pneumoniae): 9 µM (≈ 4 µg/mL)
MMC [9]: <0.001 mM
MIC ([9]; Staphylococcus aureus): < 1 µM
MMC [10]: 0.01 mM
MIC ([10]; Escherichia coli): 5 µM (≈ 2.22 µg/mL)
MMC [11]: 0.07 mM
MIC ([11]; Proteus mirabilis, ATCC12453): 35 µM (≈ 15.6 µg/mL)
BIC90 ([12]; P. aeruginosa ATCC 27853, 48 h): >2.25 mM
IC50 ([12]; Pseudomonas aeruginosa, ATCC27853, P. aeruginosa ATCC 27853, 48 h, read-out: BIC50): > 2250 µM
MMC [13]: 0.001 mM
MIC ([13]; Lactiplantibacillus plantarum): < 1 µM
BIC90 ([14]; S. aureus ATCC 25923, 48 h): >2.25 mM
IC50 ([14]; Staphylococcus aureus, ATCC25923, S. aureus ATCC 25923, 48 h, read-out: BIC50): 560 µM

MIC ([15]; Saccharomyces cerevisiae): 25 µM (≈ 7.66 µg/mL)
MIC ([16]; Saccharomyces cerevisiae): 25 µM (≈ 7.66 µg/mL)
MIC ([17]; Candida albicans, ATCC10231): 100 µM (≈ 30.6 µg/mL)
SMILES: OC(Cn1cncn1)(Cn1cncn1)c1ccc(F)cc1F [Fluconazole, fluconazole, reference compound]
MMC [15]: 0.1 mM
MMC [16]: 0.025 mM
MMC [17]: 0.2 mM
